Results from ChEMBL document CHEMBL1817560, “Selectivity of kinase inhibitor fragments” (J Med Chem, 2011).

Legend:
[1] = biological target: Mitogen-activated protein kinase 8 (Homo sapiens, UniProt P45983); assay: Inhibition of JNK1 expressed in Escherichia coli or baculovirus-infected insect cells by TR-FRET assay
[2] = biological target: RAC-alpha serine/threonine-protein kinase (Homo sapiens, UniProt P31749); assay: Inhibition of AKT1 expressed in Escherichia coli or baculovirus-infected insect cells by scintillation proximity assay
[3] = biological target: Serine/threonine-protein kinase B-raf (Homo sapiens) (UniProt P15056); assay: Inhibition of B-Raf expressed in Escherichia coli or baculovirus-infected insect cells using ATP as substrate at 400 uM by fluorescence polarization assay
[4] = biological target: T1, Inhibitor of nuclear factor kappa-B kinase subunit beta (Homo sapiens, UniProt O14920); assay: biochemical; type: cell-based
T1 sequence (O14920 whole entry): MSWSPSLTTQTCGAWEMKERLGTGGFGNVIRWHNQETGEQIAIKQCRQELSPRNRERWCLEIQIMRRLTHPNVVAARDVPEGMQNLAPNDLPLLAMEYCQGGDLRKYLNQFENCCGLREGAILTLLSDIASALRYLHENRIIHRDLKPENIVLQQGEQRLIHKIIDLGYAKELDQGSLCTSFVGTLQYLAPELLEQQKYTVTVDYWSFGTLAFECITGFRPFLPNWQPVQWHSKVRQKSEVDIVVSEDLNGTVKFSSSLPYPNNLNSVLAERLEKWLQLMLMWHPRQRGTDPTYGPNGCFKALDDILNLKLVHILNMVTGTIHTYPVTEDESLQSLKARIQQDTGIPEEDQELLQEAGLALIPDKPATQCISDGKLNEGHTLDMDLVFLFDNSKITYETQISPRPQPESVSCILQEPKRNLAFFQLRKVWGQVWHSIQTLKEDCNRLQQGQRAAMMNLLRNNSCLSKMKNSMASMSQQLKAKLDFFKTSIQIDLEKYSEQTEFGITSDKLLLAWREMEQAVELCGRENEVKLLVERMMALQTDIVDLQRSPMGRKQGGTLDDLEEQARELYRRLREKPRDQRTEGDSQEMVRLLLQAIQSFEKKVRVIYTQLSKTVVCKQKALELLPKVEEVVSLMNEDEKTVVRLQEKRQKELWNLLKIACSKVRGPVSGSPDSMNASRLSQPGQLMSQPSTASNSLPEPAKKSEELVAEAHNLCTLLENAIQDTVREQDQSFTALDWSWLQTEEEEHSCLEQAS

[5] = biological target: MAP kinase-activated protein kinase 2 (Homo sapiens) (UniProt P49137); assay: Inhibition of MK2 expressed in Escherichia coli or baculovirus-infected insect cells at 667 uM by IMAP assay
[6] = biological target: Serine/threonine-protein kinase PAK 1 (Homo sapiens) (UniProt Q13153); assay: Inhibition of PAK1 expressed in Escherichia coli or baculovirus-infected insect cells at 400 uM by IMAP assay
[7] = biological target: Mitogen-activated protein kinase 14 (Homo sapiens, UniProt Q16539); assay: Inhibition of p38alpha expressed in Escherichia coli or baculovirus-infected insect cells by TR-FRET assay
[8] = biological target: Tyrosine-protein kinase SYK (Homo sapiens, UniProt P43405); assay: Inhibition of SYK expressed in Escherichia coli or baculovirus-infected insect cells by TR-FRET assay

Chain of MAP kinase-activated protein kinase 2 (Homo sapiens) (P49137 whole entry, looked up): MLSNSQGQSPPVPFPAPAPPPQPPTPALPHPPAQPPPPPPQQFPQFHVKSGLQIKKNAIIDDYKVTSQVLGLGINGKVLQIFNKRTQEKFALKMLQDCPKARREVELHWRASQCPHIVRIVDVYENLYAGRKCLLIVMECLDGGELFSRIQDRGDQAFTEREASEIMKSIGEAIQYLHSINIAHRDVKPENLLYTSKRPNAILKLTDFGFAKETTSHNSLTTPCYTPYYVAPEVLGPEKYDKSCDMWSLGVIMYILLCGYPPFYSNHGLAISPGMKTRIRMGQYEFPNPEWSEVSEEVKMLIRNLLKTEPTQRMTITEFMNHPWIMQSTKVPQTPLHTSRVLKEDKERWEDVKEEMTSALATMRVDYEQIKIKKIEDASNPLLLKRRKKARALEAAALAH
Chain of Serine/threonine-protein kinase B-raf (Homo sapiens) (P15056 whole entry): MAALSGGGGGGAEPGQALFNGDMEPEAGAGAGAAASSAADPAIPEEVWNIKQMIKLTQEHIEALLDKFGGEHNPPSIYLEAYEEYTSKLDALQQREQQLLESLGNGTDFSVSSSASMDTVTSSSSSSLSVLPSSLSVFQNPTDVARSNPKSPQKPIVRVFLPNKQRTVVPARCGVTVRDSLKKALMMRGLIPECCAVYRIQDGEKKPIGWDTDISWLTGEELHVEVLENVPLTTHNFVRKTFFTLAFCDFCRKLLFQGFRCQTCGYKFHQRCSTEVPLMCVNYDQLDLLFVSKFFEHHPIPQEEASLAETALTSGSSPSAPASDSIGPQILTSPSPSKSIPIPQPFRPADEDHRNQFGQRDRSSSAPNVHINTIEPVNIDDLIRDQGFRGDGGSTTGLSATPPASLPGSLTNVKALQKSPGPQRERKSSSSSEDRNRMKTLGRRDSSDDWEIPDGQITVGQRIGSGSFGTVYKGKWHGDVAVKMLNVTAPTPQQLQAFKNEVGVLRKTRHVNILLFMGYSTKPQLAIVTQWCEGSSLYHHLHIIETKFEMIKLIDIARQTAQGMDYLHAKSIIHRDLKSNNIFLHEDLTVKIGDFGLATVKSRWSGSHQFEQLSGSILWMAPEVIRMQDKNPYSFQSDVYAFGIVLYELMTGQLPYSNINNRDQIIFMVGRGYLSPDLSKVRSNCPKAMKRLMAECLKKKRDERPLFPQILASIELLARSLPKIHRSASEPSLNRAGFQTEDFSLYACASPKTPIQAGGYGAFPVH
Chain of RAC-alpha serine/threonine-protein kinase (P31749 whole entry): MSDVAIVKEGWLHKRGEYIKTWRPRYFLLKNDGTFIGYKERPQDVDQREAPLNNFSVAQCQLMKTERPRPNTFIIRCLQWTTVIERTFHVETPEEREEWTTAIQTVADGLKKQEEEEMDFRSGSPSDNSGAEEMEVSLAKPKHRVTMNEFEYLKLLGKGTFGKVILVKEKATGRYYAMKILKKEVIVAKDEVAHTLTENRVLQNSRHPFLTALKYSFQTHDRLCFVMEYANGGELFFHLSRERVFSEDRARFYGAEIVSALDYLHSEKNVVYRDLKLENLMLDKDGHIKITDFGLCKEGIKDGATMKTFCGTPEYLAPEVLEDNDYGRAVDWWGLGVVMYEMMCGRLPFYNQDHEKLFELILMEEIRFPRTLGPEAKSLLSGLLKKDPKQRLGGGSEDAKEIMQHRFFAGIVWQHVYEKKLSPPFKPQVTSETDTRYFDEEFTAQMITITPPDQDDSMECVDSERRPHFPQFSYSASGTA
Chain of Serine/threonine-protein kinase PAK 1 (Homo sapiens) (Q13153 whole entry): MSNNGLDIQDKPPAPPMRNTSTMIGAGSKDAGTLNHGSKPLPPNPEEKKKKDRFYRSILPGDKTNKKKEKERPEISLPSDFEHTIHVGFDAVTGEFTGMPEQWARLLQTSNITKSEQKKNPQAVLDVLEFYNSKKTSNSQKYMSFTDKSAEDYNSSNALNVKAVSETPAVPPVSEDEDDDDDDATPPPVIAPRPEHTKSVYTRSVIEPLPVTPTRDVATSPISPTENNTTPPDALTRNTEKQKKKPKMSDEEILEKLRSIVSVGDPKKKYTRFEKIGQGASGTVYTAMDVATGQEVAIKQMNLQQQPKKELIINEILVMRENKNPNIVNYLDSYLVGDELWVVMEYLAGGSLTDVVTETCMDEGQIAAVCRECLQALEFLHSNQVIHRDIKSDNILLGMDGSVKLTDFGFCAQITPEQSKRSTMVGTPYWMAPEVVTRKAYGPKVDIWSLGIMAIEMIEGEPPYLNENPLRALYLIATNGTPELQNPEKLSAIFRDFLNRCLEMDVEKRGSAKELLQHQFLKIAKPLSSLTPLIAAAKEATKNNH
Chain of Mitogen-activated protein kinase 14 (Q16539 whole entry): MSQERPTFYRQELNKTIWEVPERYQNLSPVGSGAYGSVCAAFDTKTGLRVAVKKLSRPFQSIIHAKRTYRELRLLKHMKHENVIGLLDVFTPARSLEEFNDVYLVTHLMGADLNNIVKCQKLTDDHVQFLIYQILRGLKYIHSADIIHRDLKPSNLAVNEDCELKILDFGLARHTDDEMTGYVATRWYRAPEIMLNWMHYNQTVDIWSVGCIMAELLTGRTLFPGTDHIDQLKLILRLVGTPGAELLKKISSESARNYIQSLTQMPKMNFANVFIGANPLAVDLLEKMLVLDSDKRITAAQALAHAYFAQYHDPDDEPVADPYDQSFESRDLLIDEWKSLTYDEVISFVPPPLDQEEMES
Chain of Mitogen-activated protein kinase 8 (P45983 whole entry): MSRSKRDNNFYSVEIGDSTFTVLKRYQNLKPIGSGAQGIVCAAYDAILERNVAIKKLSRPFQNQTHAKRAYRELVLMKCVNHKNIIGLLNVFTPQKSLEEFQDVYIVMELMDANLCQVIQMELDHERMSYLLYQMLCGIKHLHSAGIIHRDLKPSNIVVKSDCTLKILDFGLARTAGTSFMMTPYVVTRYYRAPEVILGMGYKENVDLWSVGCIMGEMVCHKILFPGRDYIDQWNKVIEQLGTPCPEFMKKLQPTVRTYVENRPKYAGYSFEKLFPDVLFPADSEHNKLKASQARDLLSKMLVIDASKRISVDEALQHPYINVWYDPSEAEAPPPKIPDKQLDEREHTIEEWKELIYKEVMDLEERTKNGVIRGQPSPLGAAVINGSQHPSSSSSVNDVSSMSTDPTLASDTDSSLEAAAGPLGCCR

Compound | inhibition [5] | inhibition [6] | other results
c1cnc2[nH]ccc2c1 |  |  | IC50 ([1]; read-out: IC50): > 667 µM; IC50 ([1]; read-out: pIC50 (converted)): > 631 µM; IC50 ([2]; read-out: IC50): > 400 µM; IC50 ([2]; read-out: pIC50 (converted)): > 398 µM; inhibition [3]: 19%; IC50 ([4]; read-out: IC50): > 667 µM; IC50 ([4]; read-out: pIC50 (converted)): > 631 µM
Nc1ccc2ncc(-c3ccccc3)n2n1 | 28% | 38% | 
Cc1ccc(C(=O)NC2CC2)cc1F | 8% |  | 
Cc1ccc(NC(=O)Nc2cccc(C(F)(F)F)c2)cc1 | 13% |  | 
Nc1ncccc1OCc1ccccc1 | 54% |  | inhibition [3]: 100%
c1ccc(Nc2ncccn2)cc1 | 24% | 19% | IC50 ([7]; read-out: IC50): > 667 µM; IC50 ([7]; read-out: pIC50 (converted)): > 631 µM; inhibition [3]: 10%; IC50 ([4]; read-out: IC50): > 667 µM; IC50 ([4]; read-out: pIC50 (converted)): > 631 µM
c1ccc2[nH]ncc2c1 [INDAZOLE] |  | 12% | IC50 ([2]; read-out: IC50): > 400 µM; IC50 ([2]; read-out: pIC50 (converted)): > 398 µM; inhibition [3]: 0%
c1ccc(Nc2ccccc2)cc1 | 7% | 14% | 
Nc1n[nH]c2ncccc12 | 47% |  | 
CC(C)(C)c1cc(NC(=O)Nc2ccccc2)no1 | 28% |  | 
c1n[nH]c2c1CCCC2 | 24% | 0% | 
Cc1ccc(NC(=O)Nc2cc(C(C)(C)C)nn2-c2ccccc2)cc1 | 24% |  | 
Nc1[nH]nc2ccccc12 | 54% | 17% | 
c1ccc(-c2cnc3nccnn23)cc1 | 0% | 0% | 
Nc1[nH]cnc2ncnc1-2 | 80% |  | 
O=C(Nc1ccccc1)Nc1ccccc1 | 18% |  | IC50 [8]: > 660 µM
O=C(Nc1ccccc1)Nc1cccc(C(F)(F)F)c1 | 16% |  | 
